# According to ChEMBL document CHEMBL3862020, “A fluorescent analogue of tauroursodeoxycholic acid reduces ER stress and is cytoprotective” (Bioorg Med Chem Lett, 2016):
# Activity calls are given as the source filed them. The calls are words filed in the database; no cut-off is given here.
# Assays:
# Huh-7 [1] = assay: Cytoprotective activity against tunicamycin-induced ER stress in human HuH7 cells assessed as inhibition of BIP/GRP78 mRNA levels at 1mM after 6 hrs; type: functional, cell-based
# [2] = Cytotoxicity against human HuH7 cells assessed as reduction in cell viability by MTT assay; type: toxicity, cell-based; details: huh-7
# Huh-7 [3] = assay: Cytoprotective activity against DCA-induced ER stress in human HuH7 cells assessed as increase in XBPu mRNA levels after 6 hrs; type: functional, cell-based
# Huh-7 [4] = assay: Cytoprotective activity against tunicamycin-induced ER stress in human HuH7 cells assessed as inhibition of XBPs mRNA levels after 6 hrs; type: functional, cell-based
# Huh-7 [5] = assay: Cytoprotective activity against tunicamycin-induced ER stress in human HuH7 cells assessed as inhibition of BIP/GRP78 mRNA levels after 6 hrs; type: functional, cell-based
# Huh-7 [6] = assay: Cytoprotective activity against DCA-induced ER stress in human HuH7 cells assessed as inhibition of XBPs mRNA levels after 6 hrs; type: functional, cell-based
# Huh-7 [7] = assay: Cytoprotective activity against tunicamycin-induced ER stress in human HuH7 cells assessed as inhibition of CHOP mRNA levels after 6 hrs; type: functional, cell-based
# Huh-7 [8] = assay: Cytoprotective activity against tunicamycin-induced ER stress in human HuH7 cells assessed as reduction in XBPs/XBPu ratio after 6 hrs; type: functional, cell-based
# Huh-7 [9] = assay: Cytoprotective activity against tunicamycin-induced ER stress in human HuH7 cells assessed as increase in XBPu mRNA levels after 6 hrs; type: functional, cell-based
# Huh-7 [10] = assay: Cytoprotective activity against DCA-induced ER stress in human HuH7 cells assessed as inhibition of […] mRNA levels after 6 hrs; type: functional, cell-based
# Huh-7 [11] = assay: Cytoprotective activity against DCA-induced cell death in human HuH7 cells assessed as increase in cell viability at 500 uM preincubated with cells followed by DCA addition measured after 24 hrs by MTT/INCELL assay; type: functional, cell-based
# [12] = Cytotoxicity against HEK293 cells assessed as reduction in cell viability by MTT assay; type: toxicity, cell-based; details: human
# Huh-7 [13] = assay: Cytoprotective activity against DCA-induced cell death in human HuH7 cells assessed as increase in cell viability at 1 mM preincubated with cells followed by DCA addition measured after 24 hrs by MTT/INCELL assay; type: functional, cell-based
Structure (SMILES),inhibition (Huh-7 [1]),Activity [2],Activity (Huh-7 [3]),inhibition (Huh-7 [4]),inhibition (Huh-7 [5]),inhibition (Huh-7 [6]),inhibition (Huh-7 [7]),Activity (Huh-7 [8]),Activity (Huh-7 [9]),inhibition (Huh-7 [10]),Activity (Huh-7 [11]),Activity [12],Activity (Huh-7 [13])
C[C@H](CCC(=O)O)[C@H]1CC[C@H]2[C@@H]3[C@@H](O)C[C@@H]4C[C@H](O)CC[C@]4(C)[C@H]3CC[C@]12C,Active,–,–,–,–,–,–,–,–,–,–,–,–
"C[C@H](CCC(=O)NCCS(=O)(=O)O)[C@H]1CC[C@H]2[C@@H]3[C@@H](O)C[C@@H]4C[C@H](NS(=O)(=O)c5cccc6c(N(C)C)cccc56)CCC4(C)[C@H]3CC[C@]12C (single isomer, unassigned)",–,Non-Toxic,Active,Active,Active,Active,Active,Active,Active,Active,Active,Non-Toxic,–
C[C@H](CCC(=O)NCCS(=O)(=O)O)[C@H]1CC[C@H]2[C@@H]3[C@@H](O)C[C@@H]4C[C@H](O)CC[C@]4(C)[C@H]3CC[C@]12C [TAURURSODIOL],–,Non-Toxic,Active,Active,Active,Active,Active,Active,Active,–,–,Non-Toxic,Active
